Patent US10758534B2 (Vertex Pharmaceuticals Incorporated, priority 2014, dated 2020)

Target: T1, F508del (Homo sapiens, UniProt P13569, DEL508-508)
T1 construct: expressed in transfected cells
Assay: Protocol 1: membrane potential optical assay (FLIPR III, voltage sensing dye), identification of potentiator compounds
Type: cell-based
Settings: Table 3, compounds of Table 1
How it was run: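 NIH3T3 F508del cells, 27° C × 24 hrs; compound/DMSO pretreat → redistribution dye load → single forskolin addition with Cl⁻ gradient (gluconate-substituted bath, HEPES pH 7.4). FLIPR III membrane-potential fluorescence read.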

T1 sequence (P13569 with tags, fused parts or gaps DEL508-508): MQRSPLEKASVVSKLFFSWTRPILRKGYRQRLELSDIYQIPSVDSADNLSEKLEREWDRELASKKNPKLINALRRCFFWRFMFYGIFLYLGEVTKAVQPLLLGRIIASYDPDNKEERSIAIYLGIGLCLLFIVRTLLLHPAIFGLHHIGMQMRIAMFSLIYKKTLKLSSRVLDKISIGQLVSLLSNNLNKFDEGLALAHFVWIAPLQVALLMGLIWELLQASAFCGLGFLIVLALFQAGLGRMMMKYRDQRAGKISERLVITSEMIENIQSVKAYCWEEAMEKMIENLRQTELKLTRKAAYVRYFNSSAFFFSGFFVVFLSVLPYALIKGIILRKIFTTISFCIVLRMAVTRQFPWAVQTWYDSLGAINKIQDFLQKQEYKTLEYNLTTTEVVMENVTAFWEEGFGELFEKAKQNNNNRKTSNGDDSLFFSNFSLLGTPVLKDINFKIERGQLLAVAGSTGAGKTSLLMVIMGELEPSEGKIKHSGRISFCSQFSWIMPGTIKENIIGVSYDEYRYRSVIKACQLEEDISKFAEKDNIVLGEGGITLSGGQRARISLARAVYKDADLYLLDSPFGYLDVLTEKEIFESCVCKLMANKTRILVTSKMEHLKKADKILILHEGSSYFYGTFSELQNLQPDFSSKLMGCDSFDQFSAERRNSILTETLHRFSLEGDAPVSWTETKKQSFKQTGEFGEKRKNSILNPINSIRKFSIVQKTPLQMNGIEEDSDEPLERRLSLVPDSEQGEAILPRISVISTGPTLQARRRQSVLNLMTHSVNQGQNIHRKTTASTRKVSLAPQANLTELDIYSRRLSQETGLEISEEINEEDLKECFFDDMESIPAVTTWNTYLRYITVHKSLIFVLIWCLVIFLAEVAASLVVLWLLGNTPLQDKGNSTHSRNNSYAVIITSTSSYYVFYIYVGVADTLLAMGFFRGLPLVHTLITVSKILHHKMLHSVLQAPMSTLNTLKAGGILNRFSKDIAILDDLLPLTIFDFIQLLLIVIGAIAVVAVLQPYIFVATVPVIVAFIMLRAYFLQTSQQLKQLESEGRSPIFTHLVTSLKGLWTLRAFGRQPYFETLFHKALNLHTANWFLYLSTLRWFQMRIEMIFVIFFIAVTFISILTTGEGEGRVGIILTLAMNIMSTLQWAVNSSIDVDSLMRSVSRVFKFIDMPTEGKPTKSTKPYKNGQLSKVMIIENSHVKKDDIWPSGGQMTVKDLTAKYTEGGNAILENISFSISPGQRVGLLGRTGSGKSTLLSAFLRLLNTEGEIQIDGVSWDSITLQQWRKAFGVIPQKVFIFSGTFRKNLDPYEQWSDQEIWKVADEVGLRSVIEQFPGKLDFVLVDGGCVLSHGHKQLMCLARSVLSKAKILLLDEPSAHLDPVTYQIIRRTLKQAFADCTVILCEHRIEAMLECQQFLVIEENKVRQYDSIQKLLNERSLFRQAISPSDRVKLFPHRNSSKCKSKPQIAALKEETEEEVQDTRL

Row | EC30 | Structure (SMILES)
1 | +++ (“+++” means <3 uM) | Cc1cc(-c2ccc(C(=O)NS(=O)(=O)c3cccnc3N)c(N3C[C@@H](C)CC3(C)C)n2)cnc1OC(C)C [Compound 1702, N-[(2-amino-3-pyridyl)sulfonyl]-6-(6-isopropoxy-5-methyl-3-pyridyl)-2-[(4S)-2,2,4-trimethylpyrrolidin-1-yl]pyridine-3-carboxamide]
2 | +++ (“+++” means <3 uM) | CC1CCCC(Oc2cccc(S(=O)(=O)NC(=O)c3cccnc3N3CC(C)CC3(C)C)n2)C1 (stereo not shown) [Compound 1988, N—[[6-(3-methylcyclohexoxy)-2-pyridyl]sulfonyl]-2-(2,2,4-trimethylpyrrolidin-1-yl)pyridine-3-carboxamide]
3 | ++ (“++” means between 3 uM and 10 uM) | COc1ccc(-c2ccc(C(=O)NS(=O)(=O)c3ccc[nH]c3=O)c(Oc3c(C)cc(C)cc3C)n2)cc1 [Compound 980, 6-(4-methoxyphenyl)-N-[(2-oxo-1H-pyridin-3-yl)sulfonyl]-2-(2,4,6-trimethylphenoxy)pyridine-3-carboxamide]
4 | ++ (“++” means between 3 uM and 10 uM) | COc1ccc(-c2ccc(C(=O)NS(=O)(=O)c3cccnc3N)c(N3C[C@@H](C)CC3(C)C)n2)c(CO)c1 [Compound 1707, N-[(2-amino-3-pyridyl)sulfonyl]-6-[2-(hydroxymethyl)-4-methoxy-phenyl]-2-[(4S)-2,2,4-trimethylpyrrolidin-1-yl]pyridine-3-carboxamide]
5 | +++ (“+++” means <3 uM) | COc1ccc(-c2cnc(N3CC(C)CC3(C)C)c(C(=O)NS(=O)(=O)c3cccc(N)n3)c2)cc1 (stereo not shown) [Compound 1792, N-[(6-amino-2-pyridyl)sulfonyl]-5-(4-methoxyphenyl)-2-(2,2,4-trimethylpyrrolidin-1-yl)pyridine-3-carboxamide]
6 | ++ (“++” means between 3 uM and 10 uM) | COc1cccc(-c2ccc(C(=O)NS(=O)(=O)c3ccc[nH]c3=O)c(N3C[C@@H](C)CC3(C)C)n2)c1OC [Compound 1786, 6-(2,3-dimethoxyphenyl)-N-[(2-oxo-1H-pyridin-3-yl)sulfonyl]-2-[(4S)-2,2,4-trimethylpyrrolidin-1-yl]pyridine-3-carboxamide]
7 | ++ (“++” means between 3 uM and 10 uM) | Cc1cc(C)c(Oc2nc(C)ccc2C(=O)NS(=O)(=O)c2cccc(NCCCN)n2)c(C)c1 [Compound 982, N-[[6-(3-aminopropylamino)-2-pyridyl]sulfonyl]-6-methyl-2-(2,4,6-trimethylphenoxy)pyridine-3-carboxamide]
8 | +++ (“+++” means <3 uM) | COc1cc(Cl)ccc1-c1ccc(C(=O)NS(=O)(=O)c2cccc(N)n2)c(Oc2c(C)cc(C)cc2C)n1 [Compound 897, N-[(6-amino-2-pyridyl)sulfonyl]-6-(4-chloro-2-methoxy-phenyl)-2-(2,4,6-trimethylphenoxy)pyridine-3-carboxamide]
9 | +++ (“+++” means <3 uM) | Cc1cc(C)c(Oc2nc(C3CCC(C)(C)CC3)ccc2C(=O)NS(=O)(=O)c2ccc[nH]c2=O)c(C)c1 [Compound 1091, 6-(4,4-dimethylcyclohexyl)-N-[(2-oxo-1H-pyridin-3-yl)sulfonyl]-2-(2,4,6-trimethylphenoxy)pyridine-3-carboxamide]
10 | +++ (“+++” means <3 uM) | COc1ncc(-c2ccc(C(=O)NS(=O)(=O)c3cc[nH]n3)c(Oc3c(C)cc(C)cc3C)n2)cc1C [Compound 1044, 6-(6-methoxy-5-methyl-3-pyridyl)-N-(1H-pyrazol-3-ylsulfonyl)-2-(2,4,6-trimethylphenoxy)pyridine-3-carboxamide]
11 | +++ (“+++” means <3 uM) | Cc1cccc(C)c1Cn1nc(C(C)(C)C)cc1C(=O)NS(=O)(=O)c1cccc2cc[nH]c12 [Compound 1358, 5-tert-butyl-2-[(2,6-dimethylphenyl)methyl]-N-(1H-indol-7-ylsulfonyl)pyrazole-3-carboxamide]
12 | ++ (“++” means between 3 uM and 10 uM) | Cn1ccc2c(Cn3nc(C(C)(C)C)cc3C(=O)NS(=O)(=O)c3cccc(N)c3)cccc21 [Compound 927, N-(3-aminophenyl)sulfonyl-5-tert-butyl-2-[(1-methylindol-4-yl)methyl]pyrazole-3-carboxamide]
13 | +++ (“+++” means <3 uM) | CC1CN(c2ncccc2C(=O)NS(=O)(=O)c2cccc(N3CCN(c4ccccn4)CC3)n2)C(C)(C)C1 (stereo not shown) [Compound 1816, N—[[6-[4-(2-pyridyl)piperazin-1-yl]-2-pyridyl]sulfonyl]-2-(2,2,4-trimethylpyrrolidin-1-yl)pyridine-3-carboxamide]
14 | ++ (“++” means between 3 uM and 10 uM) | CCCOc1ccc(-c2ccc(C(=O)NS(=O)(=O)c3ccc[nH]c3=O)c(Oc3c(C)cc(C)cc3C)n2)cc1F [Compound 1022, 6-(3-fluoro-4-propoxy-phenyl)-N-[(2-oxo-1H-pyridin-3-yl)sulfonyl]-2-(2,4,6-trimethylphenoxy)pyridine-3-carboxamide]
15 | ++ (“++” means between 3 uM and 10 uM) | Cc1ccc(-c2nc3c(cc2C(=O)NS(=O)(=O)c2ccc(N)cc2)CCCC3(C)C)cc1 [Compound 1307, N-(4-aminophenyl)sulfonyl-8,8-dimethyl-2-(p-tolyl)-6,7-dihydro-5H-quinoline-3-carboxamide]
16 | +++ (“+++” means <3 uM) | CC1CN(c2nc(C(C)(C)C)c(C3=CC(C)(C)OC(C)(C)C3)cc2C(=O)NS(=O)(=O)c2cccc(N)n2)C(C)(C)C1 (stereo not shown) [Compound 1647, N-[(6-amino-2-pyridyl)sulfonyl]-6-tert-butyl-5-(2,2,6,6-tetramethyl-3H-pyran-4-yl)-2-(2,2,4-trimethylpyrrolidin-1-yl)pyridine-3-carboxamide]
17 | +++ (“+++” means <3 uM) | CC1CN(c2ncccc2C(=O)NS(=O)(=O)c2cccc(Oc3ccccc3C#N)n2)C(C)(C)C1 (stereo not shown) [Compound 1720, N—[[6-(2-cyanophenoxy)-2-pyridyl]sulfonyl]-2-(2,2,4-trimethylpyrrolidin-1-yl)pyridine-3-carboxamide]
18 | +++ (“+++” means <3 uM) | CCOCCOCCOc1cc(C)cc(-c2ccc(C(=O)NS(=O)(=O)c3cccc(N)n3)c(N3C[C@@H](C)CC3(C)C)n2)n1 [Compound 1696, N-[(6-amino-2-pyridyl)sulfonyl]-6-[6-[2-(2-ethoxyethoxy)ethoxy]-4-methyl-2-pyridyl]-2-[(4S)-2,2,4-trimethylpyrrolidin-1-yl]pyridine-3-carboxamide]
19 | +++ (“+++” means <3 uM) | CC(C)(C)c1ccc(C(=O)NS(=O)(=O)c2ccc(N)cc2)c(NCc2ccccc2)n1 [Compound 1064, N-(4-aminophenyl)sulfonyl-2-(benzylamino)-6-tert-butyl-pyridine-3-carboxamide]

Row | Structure (SMILES) | EC30
20 | CC(C)COc1cc(F)cc(-c2ccc(C(=O)NS(=O)(=O)c3cccc(N)n3)c(N3CC4CCCC4C3)n2)c1 (stereo not shown) [Compound 857, 2-(3,3a,4,5,6,6a-hexahydro-1H-cyclopenta[c]pyrrol-2-yl)-N-[(6-amino-2-pyridyl)sulfonyl]-6-(3-fluoro-5-isobutoxy-phenyl)pyridine-3-carboxamide] | +++ (“+++” means <3 uM)
21 | CC(C)COc1cc(F)cc(-c2ccc(C(=O)NS(=O)(=O)c3ccn[nH]3)c(N3CCC[C@@H]3c3ccccc3)n2)c1 [Compound 1060, 6-(3-fluoro-5-isobutoxy-phenyl)-2-[(2R)-2-phenylpyrrolidin-1-yl]-N-(1H-pyrazol-5-ylsulfonyl)pyridine-3-carboxamide] | +++ (“+++” means <3 uM)
22 | Cc1ccnc(C)c1Oc1nc(-c2cc(F)cc(OCC(C)C)c2)ccc1C(=O)NS(=O)(=O)c1cccc(N)n1 [Compound 1574, N-[(6-amino-2-pyridyl)sulfonyl]-2-[(2,4-dimethyl-3-pyridyl)oxy]-6-(3-fluoro-5-isobutoxy-phenyl)pyridine-3-carboxamide] | ++ (“++” means between 3 uM and 10 uM)
23 | CC(C)COc1cc(F)cc(-c2ccc(C(=O)NS(=O)(=O)c3cccc(N)n3)c(C3=CCC(C)(C)CC3)n2)c1 [Compound 1493, N-[(6-amino-2-pyridyl)sulfonyl]-2-(4,4-dimethylcyclohexen-1-yl)-6-(3-fluoro-5-isobutoxy-phenyl)pyridine-3-carboxamide] | +++ (“+++” means <3 uM)
24 | CC(C)COc1cc(F)cc(-c2ccc(C(=O)NS(=O)(=O)c3cccc(N)n3)c(N3CCCC(C(C)C)C3)n2)c1 (stereo not shown) [Compound 1098, N-[(6-amino-2-pyridyl)sulfonyl]-6-(3-fluoro-5-isobutoxy-phenyl)-2-(3-isopropyl-1-piperidyl)pyridine-3-carboxamide] | +++ (“+++” means <3 uM)
25 | CC(C)COc1cc(F)cc(-c2ccc(C(=O)NS(=O)(=O)N3CCCC(NS(C)(=O)=O)C3)c(N3CC(C)CC3(C)C)n2)c1 (stereo not shown) [Compound 1600, 6-(3-fluoro-5-isobutoxy-phenyl)-N—[[3-(methanesulfonamido)-1-piperidyl]sulfonyl]-2-(2,2,4-trimethylpyrrolidin-1-yl)pyridine-3-carboxamide] | +++ (“+++” means <3 uM)
26 | CC(C)COc1cc(F)cc(-c2ccc(C(=O)NS(=O)(=O)c3nc(N)cs3)c(N3CCC(C)(C)CC3)n2)c1 [Compound 1168, N-(4-aminothiazol-2-yl)sulfonyl-2-(4,4-dimethyl-1-piperidyl)-6-(3-fluoro-5-isobutoxy-phenyl)pyridine-3-carboxamide] | +++ (“+++” means <3 uM)
27 | CC(C)COc1cc(F)cc(-c2ccc(C(=O)NS(=O)(=O)c3ccn[nH]3)c(N3CCC(C)(C)C3C)n2)c1 (stereo not shown) [Compound 952, 6-(3-fluoro-5-isobutoxy-phenyl)-N-(1H-pyrazol-5-ylsulfonyl)-2-(2,3,3-trimethylpyrrolidin-1-yl)pyridine-3-carboxamide] | +++ (“+++” means <3 uM)
28 | CC(C)COc1cc(F)cc(-c2ccc(C(=O)NS(=O)(=O)c3cccc(N)n3)c(N3CCC(c4ccccc4)C3C)n2)c1 (stereo not shown) [Compound 1319, N-[(6-amino-2-pyridyl)sulfonyl]-6-(3-fluoro-5-isobutoxy-phenyl)-2-(2-methyl-3-phenyl-pyrrolidin-1-yl)pyridine-3-carboxamide] | +++ (“+++” means <3 uM)
